This passage reports IC50 and fold induction results from patent US20220324835A1 (Nurix Therapeutics, Inc., priority 2018, published 2022).

Experiment [1] addresses Cbl-b (Homo sapiens, UniProt Q13191). The experiment can be described thus: Cbl-b inhibition assay (Cbl-b activity assay, FRET, Biological Example 1; 100 mM NaCl, 60 nM Src kinase). The format is biochemical. As to conditions: upper bound stated in text lists; read-out: IC50 values in the Cbl-b inhibition assay of Biological Example 1. The procedure, abridged:
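FRET read-out: loss of signal marks inhibition. Mix = biotin-Avi-Cbl-b (N-term), Src kinase, UbcH5B-Ub(Bodipy-FL, irreversible conjugate), streptavidin-Tb, assay buffer.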

The test system of experiment [2] is T-cell. The experiment can be described thus: IL-2 secretion from T-cells co-stimulated with anti-CD3 and anti-CD28 antibody (Biological Example 2). It counts as cell-based, human. To be noted: Homo sapiens, T-cell, primary human total T-cells, baseline = anti-CD3/anti-CD28 stimulated cells without inhibitor, read-out: IL-2 secretion, Anti-CD3/Anti-CD28 stimulation, fold change over baseline; for fold induction at 0.3 µM: 0.3 μM compound; for fold induction at 1 µM: 1 μM compound; for fold induction at 4 µM: 4 μM compound. The procedure, abridged:
(§1)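 Values are fold-change over baseline: readings (IL-2 release, CD25 staining) from inhibitor-treated T-cells divided against untreated cells […]. No detailed procedure stated.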

Experiment [3] has as its system T-cell. The experiment can be described thus: CD25 cell surface staining on T-cells co-stimulated with anti-CD3 and anti-CD28 antibody (Biological Example 2). It counts as cell-based, human. To be noted: Homo sapiens, T-cell, primary human total T-cells, baseline = anti-CD3/anti-CD28 stimulated cells without inhibitor, read-out: CD25 staining, Anti-CD3/Anti-CD28 stimulation, fold change over baseline; for fold induction at 0.3 µM: 0.3 μM compound; for fold induction at 1 µM: 1 μM compound; for fold induction at 4 µM: 4 μM compound. A digest of the protocol: as §1

SMILES strings stand for the structures.

Cbl-b, sequence (Q13191 36-427): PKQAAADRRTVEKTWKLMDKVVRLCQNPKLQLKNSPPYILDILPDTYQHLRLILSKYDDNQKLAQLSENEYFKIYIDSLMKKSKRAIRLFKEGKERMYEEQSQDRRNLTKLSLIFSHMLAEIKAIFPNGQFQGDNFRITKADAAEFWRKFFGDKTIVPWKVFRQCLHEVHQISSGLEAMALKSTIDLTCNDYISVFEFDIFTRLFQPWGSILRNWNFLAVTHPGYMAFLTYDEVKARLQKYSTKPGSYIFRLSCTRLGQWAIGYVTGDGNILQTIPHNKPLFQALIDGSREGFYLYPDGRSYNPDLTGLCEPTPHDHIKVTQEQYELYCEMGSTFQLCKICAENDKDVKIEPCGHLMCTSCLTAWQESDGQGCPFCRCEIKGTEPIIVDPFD

In the case of `Cn1cnnc1C(F)(F)[C@](C)(F)c1cccc(N2Cc3c(cc(C(=O)N4CC[C@H](O)C4)cc3C(F)(F)F)C2=O)c1` [Compound 438, 6-((S)-3-hydroxypyrrolidine-1-carbonyl)-2-(3-((R)-1,1,2-trifluoro-1-(4-methyl-4H-1,2,4-triazol-3-yl)propan-2-yl)phenyl)-4-(trifluoromethyl)isoindolin-1-one], in experiment [1], the IC50 is not above 100 nM. In experiment [2], the fold induction at 0.3 µM is 1.01 to 2.5, the fold induction at 1 µM was in the range of 2.51 to 5 and the fold induction at 4 µM is more than 7.5. Also, in experiment [3], the fold induction at 0.3 µM was 1.01 to 1.3, the fold induction at 1 µM was in the range of 1.01 to 1.3 and the fold induction at 4 µM is 1.31 to 1.5.

In the case of `Cn1cnnc1C(F)(F)[C@](C)(F)c1cccc(N2Cc3c(cc(N4CCNCC4)cc3C(F)(F)F)C2=O)c1` [Compound 442, (R)-6-(Piperazin-1-yl)-2-(3-(1,1,2-trifluoro-1-(4-methyl-4H-1,2,4-triazol-3-yl)propan-2-yl)phenyl)-4-(trifluoromethyl)isoindolin-1-one], the IC50 in experiment [1] is not above 100 nM. For the same compound, in experiment [2], the fold induction at 0.3 µM lay in the range of 2.51 to 5, the fold induction at 1 µM was more than 7.5 and the fold induction at 4 µM is more than 7.5. Further, in experiment [3], the fold induction at 0.3 µM lay within 1.31 to 1.5, the fold induction at 1 µM was in the range of 1.51 to 1.75 and the fold induction at 4 µM fell in the range of 1.51 to 1.75.

Turning to `Cn1cnnc1C(F)(F)[C@](C)(F)c1cccc(N2Cc3c(cc(CN4CC[C@H](F)C4)cc3C(F)(F)F)C2=O)c1` [Compound 447, 6-(((S)-3-fluoropyrrolidin-1-yl)methyl)-2-(3-((R)-1,1,2-trifluoro-1-(4-methyl-4H-1,2,4-triazol-3-yl)propan-2-yl)phenyl)-4-(trifluoromethyl)isoindolin-1-one], the IC50 in experiment [1] is not above 100 nM. Further, in experiment [2], the fold induction at 0.3 µM was 2.51 to 5, the fold induction at 1 µM is more than 7.5 and the fold induction at 4 µM is more than 7.5. In experiment [3], the fold induction at 0.3 µM was 1.31 to 1.5, the fold induction at 1 µM lay within 1.51 to 1.75 and the fold induction at 4 µM lay within 1.51 to 1.75.

`Cn1cnnc1C(F)(F)[C@](C)(F)c1cccc(N2Cc3c(cc(CN4CCC(F)(F)C4)cc3C(F)(F)F)C2=O)c1` [Compound 448, (R)-6-((3,3-difluoropyrrolidin-1-yl)methyl)-2-(3-(1,1,2-trifluoro-1-(4-methyl-4H-1,2,4-triazol-3-yl)propan-2-yl)phenyl)-4-(trifluoromethyl)isoindolin-1-one]: the IC50 in experiment [1] is not above 100 nM. Besides, in experiment [2], the fold induction at 0.3 µM was 1.01 to 2.5, the fold induction at 1 µM lay in the range of 2.51 to 5 and the fold induction at 4 µM is more than 7.5. In addition, in experiment [3], the fold induction at 0.3 µM was in the range of 1.01 to 1.3, the fold induction at 1 µM was in the range of 1.01 to 1.3 and the fold induction at 4 µM was in the range of 1.31 to 1.5.

Take `Cn1cnnc1C(F)(F)[C@](C)(F)c1cccc(N2Cc3c(cc(CN4CC[C@@H](F)C4)cc3C(F)(F)F)C2=O)c1` [Compound 450]: the IC50 in experiment [1] is not above 100 nM. For the same compound, in experiment [2], the fold induction at 0.3 µM fell in the range of 2.51 to 5, the fold induction at 1 µM was more than 7.5 and the fold induction at 4 µM was more than 7.5. In experiment [3], the fold induction at 0.3 µM was in the range of 1.31 to 1.5, the fold induction at 1 µM is 1.51 to 1.75 and the fold induction at 4 µM is 1.51 to 1.75.

Regarding `COC1CN(Cc2cc3c(c(C(F)(F)F)c2)CN(c2cccc([C@@](C)(F)C(F)(F)c4nncn4C)c2)C3=O)C1` [Compound 452, (R)-6-((3-methoxyazetidin-1-yl)methyl)-2-(3-(1,1,2-trifluoro-1-(4-methyl-4H-1,2,4-triazol-3-yl)propan-2-yl)phenyl)-4-(trifluoromethyl)isoindolin-1-one], the IC50 in experiment [1] was not above 100 nM. In experiment [2], the fold induction at 0.3 µM was in the range of 2.51 to 5, the fold induction at 1 µM was 5 to 7.5 and the fold induction at 4 µM is more than 7.5. In experiment [3], the fold induction at 0.3 µM fell in the range of 1.01 to 1.3, the fold induction at 1 µM was 1.31 to 1.5 and the fold induction at 4 µM was in the range of 1.31 to 1.5.

For the compound `Cn1cnnc1C(F)(F)[C@](C)(F)c1cccc(N2Cc3c(cc(CN4CC[C@@H](C#N)C4)cc3C(F)(F)F)C2=O)c1` [Compound 455, (R)-1-((3-oxo-2-(3-((R)-1,1,2-trifluoro-1-(4-methyl-4H-1,2,4-triazol-3-yl)propan-2-yl)phenyl)-7-(trifluoromethyl)isoindolin-5-yl)methyl)pyrrolidine-3-carbonitrile], in experiment [1], the IC50 is not above 100 nM. In experiment [2], the fold induction at 0.3 µM fell in the range of 5 to 7.5, the fold induction at 1 µM is more than 7.5 and the fold induction at 4 µM was more than 7.5. In experiment [3], the fold induction at 0.3 µM is 1.01 to 1.3, the fold induction at 1 µM was in the range of 1.31 to 1.5 and the fold induction at 4 µM lay in the range of 1.31 to 1.5.

As to `C[C@H](Cc1nncn1C)c1cccc(NC(=O)c2cc3cc(N4CCNCC4)ccc3cn2)c1` [Compound 472, N-{3-[(2R)-1-(4-methyl-4H-1,2,4-triazol-3-yl)propan-2-yl]phenyl}-6-(piperazin-1-yl)isoquinoline-3-carboxamide], the IC50 in experiment [1] was not above 100 nM. In addition, in experiment [2], the fold induction at 0.3 µM is less than 1, the fold induction at 1 µM was in the range of 1.01 to 2.5 and the fold induction at 4 µM lay within 2.51 to 5. Besides, in experiment [3], the fold induction at 0.3 µM is 1.01 to 1.3, the fold induction at 1 µM was 1.01 to 1.3 and the fold induction at 4 µM lay in the range of 1.01 to 1.3.

For `Cn1cnnc1CC1(c2cccc(N3Cc4c(cc(CN5CC6(CC6)C5)cc4C(F)(F)F)C3=O)c2)COC1` [Compound 487, 6-{5-azaspiro[2.3]hexan-5-ylmethyl}-2-(3-{3-[(4-methyl-1,2,4-triazol-3-yl)methyl]oxetan-3-yl}phenyl)-4-(trifluoromethyl)-3H-isoindol-1-one], in experiment [1], the half-inhibitory concentration (IC50) is not above 100 nM. Also, in experiment [2], the fold induction at 0.3 µM was more than 7.5 and the fold induction at 1 µM was more than 7.5. In experiment [3], the fold induction at 0.3 µM is 1.31 to 1.5 and the fold induction at 1 µM was 1.31 to 1.5.

As for `Cn1cnnc1CC1(c2cccc(NC(=O)c3cc(CN4CC[C@H](F)C4)cc(C4CC4)n3)c2)COC1` [Compound 496, 6-cyclopropyl-4-{[(3S)-3-fluoropyrrolidin-1-yl]methyl}-N-(3-{3-[(4-methyl-1,2,4-triazol-3-yl)methyl]oxetan-3-yl}phenyl)pyridine-2-carboxamide], the IC50 in experiment [1] was not above 100 nM. Further, in experiment [2], the fold induction at 0.3 µM is more than 7.5 and the fold induction at 1 µM is more than 7.5. In experiment [3], the fold induction at 0.3 µM lay in the range of 1.51 to 1.75 and the fold induction at 1 µM was in the range of 1.51 to 1.75.

Consider `Cn1cnnc1CC1(c2cccc(NC(=O)c3cc(CN4CCC5(CC5)C4)cc(C4CC4)n3)c2)COC1` [Compound 519, 4-((5-azaspiro[2.4]heptan-5-yl)methyl)-6-cyclopropyl-N-(3-(3-((4-methyl-4H-1,2,4-triazol-3-yl)methyl)oxetan-3-yl)phenyl)picolinamide], for which the IC50 in experiment [1] was not above 100 nM. For the same compound, in experiment [2], the fold induction at 0.3 µM was more than 7.5 and the fold induction at 1 µM is more than 7.5. Besides, in experiment [3], the fold induction at 0.3 µM lay in the range of 1.31 to 1.5 and the fold induction at 1 µM lay in the range of 1.31 to 1.5.

`Cn1cnnc1CC1(c2cccc(N3Cc4c(cc(CN5CCC6(CC6)C5)cc4C(F)(F)F)C3=O)c2)COC1` [Compound 520, 6-((5-azaspiro[2.4]heptan-5-yl)methyl)-2-(3-(3-((4-methyl-4H-1,2,4-triazol-3-yl)methyl)oxetan-3-yl)phenyl)-4-(trifluoromethyl)isoindolin-1-one]: in experiment [1], the IC50 is not above 100 nM. In addition, in experiment [2], the fold induction at 0.3 µM is more than 7.5 and the fold induction at 1 µM was more than 7.5. In experiment [3], the fold induction at 0.3 µM lay within 1.31 to 1.5 and the fold induction at 1 µM is 1.31 to 1.5.

For the compound `C[C@@H](c1cc2c(c(C(F)(F)F)c1)CN(c1cccc(C3(Cc4nncn4C)COC3)c1)C2=O)N1C[C@H]2C[C@H]2C1` [Compound 541a, 6-((1S)-1-(3-azabicyclo[3.1.0]hexan-3-yl)ethyl)-2-(3-(3-((4-methyl-4H-1,2,4-triazol-3-yl)methyl)oxetan-3-yl)phenyl)-4-(trifluoromethyl)isoindolin-1-one], the IC50 in experiment [1] was not above 100 nM. In experiment [2], the fold induction at 0.3 µM is more than 7.5 and the fold induction at 1 µM was more than 7.5. Besides, in experiment [3], the fold induction at 0.3 µM was in the range of 1.31 to 1.5 and the fold induction at 1 µM fell in the range of 1.31 to 1.5.

Consider `C[C@@H](c1cc2c(c(C(F)(F)F)c1)CN(c1cccc(C3(Cc4nncn4C)COC3)c1)C2=O)N1CCC(C)(F)CC1` [Example 553a, (S)-6-(1-(4-fluoro-4-methylpiperidin-1-yl)ethyl)-2-(3-(3-((4-methyl-4H-1,2,4-triazol-3-yl)methyl)oxetan-3-yl)phenyl)-4-(trifluoromethyl)isoindolin-1-one], for which, in experiment [1], the IC50 was not above 100 nM. Further, in experiment [2], the fold induction at 0.3 µM was more than 7.5 and the fold induction at 1 µM is more than 7.5. Moreover, in experiment [3], the fold induction at 0.3 µM is more than 1.76 and the fold induction at 1 µM was more than 1.76.
